Test: mn = molality of the nth substance listed, in mol/kg
Settings: 101.3 kPa, Liquid; for viscosity: Capillary tube (Ostwald / Ubbelohde) method; for mass density: Vibrating tube method

[Cl-].[Na+] [sodium chloride] + O
Settings | mass density, 293.15 K [kg/m3] | mass density, 303.15 K [kg/m3] | mass density, 313.15 K [kg/m3] | viscosity, 293.15 K [mPa·s] | viscosity, 303.15 K [mPa·s] | viscosity, 313.15 K [mPa·s]
m1 = 0.5 | 1018.6 | 1015.7 | 1011.9 | 1.041 | 0.835 | 0.688
m1 = 1 | 1037.8 | 1034.4 | 1030.4 | 1.087 | 0.873 | 0.722
m1 = 1.5 | 1056.3 | 1052.6 | 1048.4 | 1.138 | 0.918 | 0.76
m1 = 2 | 1074.1 | 1070.1 | 1065.7 | 1.196 | 0.966 | 0.802
m1 = 2.5 | 1091.4 | 1087.2 | 1082.5 | 1.264 | 1.021 | 0.848
m1 = 3 | 1107.8 | 1103.4 | 1098.6 | 1.333 | 1.077 | 0.895
m1 = 3.5 | 1123.9 | 1119.2 | 1114.3 | 1.411 | 1.14 | 0.945
m1 = 4 | 1139.2 | 1134.4 | 1129.3 | 1.499 | 1.208 | 1

O [water] + [Cl-].[Na+]
m2 = 0
Settings | viscosity [mPa·s]
293.15 K | 1.002
303.15 K | 0.797
313.15 K | 0.653

Reference: the NIST ThermoML archive (doi:10.1021/je020153x)
